Activity calls are given as the source filed them.
Experiments:
[1] = target: T1, Cannabinoid receptor 2 (Homo sapiens, UniProt P34972); assay: SAR analysis of antagonists of the Cannabinoid Receptor 2 using an Image-Based Assay - Set 3. [Related pubchem assays (depositor defined):AID2013, AID2026]; format: functional
[2] = target: T2, G-protein coupled receptor 35 (Homo sapiens, UniProt Q9HC97); assay: SAR analysis of Agonists of the GPR35 Receptor using an Image-Based Assay - Set 4. [Related pubchem assays (depositor defined):AID2013, AID2026]; format: functional
T2 sequence (Q9HC97 whole entry): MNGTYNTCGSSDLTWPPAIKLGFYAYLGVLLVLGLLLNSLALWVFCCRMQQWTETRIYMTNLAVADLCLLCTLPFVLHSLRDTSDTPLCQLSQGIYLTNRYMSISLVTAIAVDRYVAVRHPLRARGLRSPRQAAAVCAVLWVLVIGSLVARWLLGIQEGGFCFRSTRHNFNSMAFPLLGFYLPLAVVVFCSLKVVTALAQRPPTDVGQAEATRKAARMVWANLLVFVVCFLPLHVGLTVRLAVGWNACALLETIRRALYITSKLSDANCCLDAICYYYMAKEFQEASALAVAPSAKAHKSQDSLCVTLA

[3] = target: T3, Cannabinoid receptor 1 (Homo sapiens, UniProt P21554); assay: SAR analysis of agonists of the Cannabinoid Receptor 1 using an Image-Based Assay - Set 4. [Related pubchem assays (depositor defined):AID2013, AID2026]; format: functional
T3 sequence (P21554 whole entry): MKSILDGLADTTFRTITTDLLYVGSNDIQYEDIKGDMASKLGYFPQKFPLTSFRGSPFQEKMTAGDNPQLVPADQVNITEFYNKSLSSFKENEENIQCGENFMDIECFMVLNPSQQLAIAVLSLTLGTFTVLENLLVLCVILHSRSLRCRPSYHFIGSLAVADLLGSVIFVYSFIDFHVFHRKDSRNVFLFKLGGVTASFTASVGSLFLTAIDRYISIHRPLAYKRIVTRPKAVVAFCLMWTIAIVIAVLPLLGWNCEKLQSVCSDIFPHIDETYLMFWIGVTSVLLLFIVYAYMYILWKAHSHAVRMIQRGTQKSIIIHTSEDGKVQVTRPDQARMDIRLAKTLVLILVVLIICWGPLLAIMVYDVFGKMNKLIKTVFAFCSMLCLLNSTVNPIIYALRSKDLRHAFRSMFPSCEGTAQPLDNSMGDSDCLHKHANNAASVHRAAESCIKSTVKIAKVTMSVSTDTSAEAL

[4] = target: T1, Cannabinoid receptor 2; assay: SAR analysis of agonists of the Cannabinoid Receptor 2 using an Image-Based Assay - Set 3. [Related pubchem assays (depositor defined):AID2013, AID2026]; format: functional
[5] = target: T3, Cannabinoid receptor 1; assay: SAR analysis of antagonists of the Cannabinoid Receptor 1 using an Image-Based Assay - Set 4. [Related pubchem assays (depositor defined):AID2013, AID2026]; format: functional
[6] = target: T2, G-protein coupled receptor 35; assay: SAR analysis of Antagonists of the GPR35 Receptor using an Image-Based Assay - Set 6. [Related pubchem assays (depositor defined):AID2013, AID2026]; format: functional
[7] = target: T4, G-protein coupled receptor 55 (Homo sapiens, UniProt Q9Y2T6); assay: SAR Analysis of Selective Antagonists of GPR55 using an Image-Based Assay - Set 4. [Related pubchem assays (depositor defined):AID2013, AID2026]; format: functional
T4 sequence (Q9Y2T6 whole entry): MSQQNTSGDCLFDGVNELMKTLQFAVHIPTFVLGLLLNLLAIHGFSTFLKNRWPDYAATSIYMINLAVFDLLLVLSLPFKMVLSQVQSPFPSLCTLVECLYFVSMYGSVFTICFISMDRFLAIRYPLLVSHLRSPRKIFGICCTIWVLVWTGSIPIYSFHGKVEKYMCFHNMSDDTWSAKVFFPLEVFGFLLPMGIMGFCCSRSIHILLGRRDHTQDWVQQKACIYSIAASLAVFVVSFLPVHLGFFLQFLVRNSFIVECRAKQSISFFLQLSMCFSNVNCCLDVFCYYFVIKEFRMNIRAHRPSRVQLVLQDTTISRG

[8] = target: T2, G-protein coupled receptor 35; assay: GPR35 antagonists blocking zaprinast-driven arrestin recruitment, primary screen, imaging, U2OS, beta-arrestin-GFP, zaprinast agonist (AID 2058); format: functional;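 further: antagonist potency meaning inhibition of agonist-induced arrestin redistribution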
[9] = target: T2, G-protein coupled receptor 35; assay: SAR Analysis for the identification of Selective Antagonists of ERK1/2 Activity in GPR35-Overexpressing U2OS Cells. [Related pubchem assays: 2079, 2058 ]; format: functional, cell-based
[10] = target: T4, G-protein coupled receptor 55; assay: GPR55 antagonists, SAR follow-up, counter-screen for GPR35 antagonist project, imaging, image-based (AID 2397); format: functional
[11] = target: Nuclear receptor ROR-gamma (Homo sapiens, UniProt P51449); assay: ROR modulator nuclear receptor reporter panel, late-stage follow-up, ROR modulator project, cell-based, luciferase reporter, panel member RORG (AID 2117)
Nuclear receptor ROR-gamma, sequence (P51449 whole entry): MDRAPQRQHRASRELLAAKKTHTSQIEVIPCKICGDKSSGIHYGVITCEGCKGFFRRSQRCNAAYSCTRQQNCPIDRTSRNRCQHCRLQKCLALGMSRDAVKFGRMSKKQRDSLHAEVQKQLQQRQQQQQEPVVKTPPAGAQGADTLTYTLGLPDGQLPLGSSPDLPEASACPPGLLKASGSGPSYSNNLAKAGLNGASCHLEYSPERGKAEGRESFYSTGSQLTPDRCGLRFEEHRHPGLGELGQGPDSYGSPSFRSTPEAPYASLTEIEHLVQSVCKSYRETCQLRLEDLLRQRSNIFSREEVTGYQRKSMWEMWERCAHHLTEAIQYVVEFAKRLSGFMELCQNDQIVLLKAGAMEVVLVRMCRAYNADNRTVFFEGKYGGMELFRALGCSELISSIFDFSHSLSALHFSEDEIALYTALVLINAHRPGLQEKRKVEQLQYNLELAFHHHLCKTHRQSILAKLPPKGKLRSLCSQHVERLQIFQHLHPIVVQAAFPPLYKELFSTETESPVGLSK

[12] = target: Nuclear receptor ROR-alpha (Homo sapiens, UniProt P35398); assay: ROR modulator nuclear receptor reporter panel, late-stage follow-up, ROR modulator project, cell-based, luciferase reporter, panel member RORA (AID 2117)
Nuclear receptor ROR-alpha, sequence (P35398 whole entry): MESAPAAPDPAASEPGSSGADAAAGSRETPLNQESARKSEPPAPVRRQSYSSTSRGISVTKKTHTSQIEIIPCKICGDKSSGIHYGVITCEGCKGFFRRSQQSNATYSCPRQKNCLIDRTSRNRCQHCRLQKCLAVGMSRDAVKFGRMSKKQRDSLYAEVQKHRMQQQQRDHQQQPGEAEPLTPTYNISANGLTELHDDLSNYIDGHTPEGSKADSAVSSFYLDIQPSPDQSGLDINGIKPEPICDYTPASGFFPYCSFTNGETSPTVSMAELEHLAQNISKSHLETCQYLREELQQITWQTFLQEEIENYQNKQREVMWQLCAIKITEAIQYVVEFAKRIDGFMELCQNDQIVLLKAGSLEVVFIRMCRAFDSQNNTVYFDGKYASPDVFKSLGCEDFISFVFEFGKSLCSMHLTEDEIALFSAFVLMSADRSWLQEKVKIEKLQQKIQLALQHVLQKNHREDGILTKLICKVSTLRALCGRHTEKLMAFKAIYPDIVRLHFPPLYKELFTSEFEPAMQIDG

[13] = target: Peroxisome proliferator-activated receptor gamma/Nuclear receptor coactivator 1 (Homo sapiens, UniProt P37231); assay: TR-FRET dose response biochemical High Throughput Screening assay for agonists of the steroid receptor coactivator 1 (SRC-1) recruitment by the peroxisome proliferator-activated receptor gamma (PPAR gamma): non-selective agonists. [Related pubchem assays (depositor defined):AID1300, AID1808, AID504735, AID631]; format: protein assay
[14] = target: Peroxisome proliferator-activated receptor gamma/Nuclear receptor coactivator 2 (Homo sapiens, UniProt P37231); assay: (§1) TR-FRET dose response biochemical High Throughput Screening assay for agonists of the steroid receptor coactivator 2 (SRC-2) recruitment by the peroxisome proliferator-activated receptor gamma (PPAR gamma): non-selective agonists. [Related pubchem assays: 1297, 1032 ]; format: functional
Peroxisome proliferator-activated receptor gamma/Nuclear receptor coactivator 2, sequence (P37231 whole entry): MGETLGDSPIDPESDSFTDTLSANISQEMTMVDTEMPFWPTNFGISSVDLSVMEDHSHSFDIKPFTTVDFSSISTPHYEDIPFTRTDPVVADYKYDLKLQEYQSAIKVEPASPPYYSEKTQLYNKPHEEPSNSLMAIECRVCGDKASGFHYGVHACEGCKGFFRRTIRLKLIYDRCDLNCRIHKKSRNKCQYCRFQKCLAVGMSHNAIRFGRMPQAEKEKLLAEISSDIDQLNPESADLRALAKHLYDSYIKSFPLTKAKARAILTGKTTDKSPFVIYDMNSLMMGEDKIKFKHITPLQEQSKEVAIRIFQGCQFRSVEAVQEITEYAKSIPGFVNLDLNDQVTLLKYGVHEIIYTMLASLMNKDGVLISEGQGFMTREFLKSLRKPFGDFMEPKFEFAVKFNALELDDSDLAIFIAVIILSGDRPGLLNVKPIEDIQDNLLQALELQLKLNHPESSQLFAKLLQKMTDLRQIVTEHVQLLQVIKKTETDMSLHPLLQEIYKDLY
Peroxisome proliferator-activated receptor gamma/Nuclear receptor coactivator 2, sequence (Q15596 whole entry, further chain): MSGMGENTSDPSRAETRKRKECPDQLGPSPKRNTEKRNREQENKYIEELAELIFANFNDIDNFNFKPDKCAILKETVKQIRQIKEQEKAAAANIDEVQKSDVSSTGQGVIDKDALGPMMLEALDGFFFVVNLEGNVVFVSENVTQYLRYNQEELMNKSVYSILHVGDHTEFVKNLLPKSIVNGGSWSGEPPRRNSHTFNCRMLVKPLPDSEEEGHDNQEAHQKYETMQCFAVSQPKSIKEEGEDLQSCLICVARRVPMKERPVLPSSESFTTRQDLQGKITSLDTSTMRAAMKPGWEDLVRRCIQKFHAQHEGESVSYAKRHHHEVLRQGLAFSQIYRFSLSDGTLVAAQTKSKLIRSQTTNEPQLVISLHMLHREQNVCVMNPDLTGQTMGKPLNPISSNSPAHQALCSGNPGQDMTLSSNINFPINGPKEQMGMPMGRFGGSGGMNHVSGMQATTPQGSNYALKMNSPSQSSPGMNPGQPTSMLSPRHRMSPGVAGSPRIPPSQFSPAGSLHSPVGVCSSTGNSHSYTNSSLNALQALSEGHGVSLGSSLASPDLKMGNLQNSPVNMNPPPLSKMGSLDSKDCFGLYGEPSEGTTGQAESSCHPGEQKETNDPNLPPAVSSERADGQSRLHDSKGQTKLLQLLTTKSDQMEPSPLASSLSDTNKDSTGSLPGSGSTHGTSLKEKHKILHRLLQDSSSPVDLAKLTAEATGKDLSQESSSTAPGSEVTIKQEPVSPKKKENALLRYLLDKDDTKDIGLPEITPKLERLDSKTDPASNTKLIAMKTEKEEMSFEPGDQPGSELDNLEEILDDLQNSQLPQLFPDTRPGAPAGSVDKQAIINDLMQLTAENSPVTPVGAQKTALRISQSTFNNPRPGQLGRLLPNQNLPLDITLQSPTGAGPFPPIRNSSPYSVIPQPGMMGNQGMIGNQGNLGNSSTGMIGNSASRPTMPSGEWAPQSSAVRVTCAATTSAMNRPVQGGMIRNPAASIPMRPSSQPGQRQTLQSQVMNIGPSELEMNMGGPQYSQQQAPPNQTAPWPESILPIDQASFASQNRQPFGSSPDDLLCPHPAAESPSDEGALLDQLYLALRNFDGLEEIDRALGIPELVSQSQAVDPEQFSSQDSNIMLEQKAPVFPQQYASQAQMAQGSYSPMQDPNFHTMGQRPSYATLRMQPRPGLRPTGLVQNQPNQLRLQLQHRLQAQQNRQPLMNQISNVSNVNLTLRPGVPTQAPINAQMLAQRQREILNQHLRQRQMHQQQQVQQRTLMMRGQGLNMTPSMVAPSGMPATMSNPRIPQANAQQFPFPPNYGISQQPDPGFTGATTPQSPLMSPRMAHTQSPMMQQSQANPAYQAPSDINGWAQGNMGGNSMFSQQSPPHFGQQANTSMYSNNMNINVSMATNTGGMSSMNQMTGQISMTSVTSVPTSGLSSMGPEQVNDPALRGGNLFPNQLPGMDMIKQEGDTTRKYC

[15] = target: Peroxisome proliferator-activated receptor gamma/Nuclear receptor coactivator 3 (Homo sapiens, UniProt P37231); assay: as §1, with “3 (SRC-3)” for “2 (SRC-2)”, “1301 (Confirmation screen.), 1048 (Primary screen.)]” for “1297, 1032 ]”; format: functional

T1 sequence (P34972 whole entry): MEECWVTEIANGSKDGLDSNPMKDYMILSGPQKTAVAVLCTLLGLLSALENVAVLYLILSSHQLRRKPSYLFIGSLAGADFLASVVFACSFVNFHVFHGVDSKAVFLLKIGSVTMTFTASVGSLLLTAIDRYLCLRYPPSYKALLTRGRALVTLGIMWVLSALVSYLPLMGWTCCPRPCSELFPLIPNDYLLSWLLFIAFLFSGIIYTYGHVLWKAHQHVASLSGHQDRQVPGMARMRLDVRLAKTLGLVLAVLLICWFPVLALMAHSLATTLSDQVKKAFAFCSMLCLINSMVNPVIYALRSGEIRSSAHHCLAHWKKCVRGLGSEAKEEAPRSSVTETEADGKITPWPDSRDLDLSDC

N=c1c(C(=O)NCc2ccccc2)cc2c(=O)n3ccccc3nc2n1C1CCCC1
IC50 [1]: > 32 µM (inactive)
EC50 [2]: > 32 µM (inactive)
EC50 [3]: > 32 µM (inactive)
EC50 [4]: 1.31 µM (active)
IC50 [5]: 15.9 µM (inactive)
IC50 [6]: > 32 µM (inactive)
IC50 [7]: 4.1 µM (active)

Cc1nc(N2CCC(C)CC2)c2c(C)c(C(=O)Nc3ccc4c(c3)OCCO4)sc2n1
IC50 [8]: 1.2 µM (active)
IC50 [9]: > 32 µM (not active)
IC50 [10]: > 32 µM (inactive)

O=S(=O)(Nc1ccc(C(O)(C(F)(F)F)C(F)(F)F)cc1)c1cccc2ccccc12
IC50 [11]: 1.94 µM (active)
IC50 [12]: 7.75 µM (active)

CC(C)C(OC(=O)c1cc2occc2n1C)C(=O)NCc1ccc2c(c1)OCO2 (stereo not given)
EC50 [13]: > 79.4 µM (inactive)
EC50 [14]: > 79.4 µM (not active)
EC50 [15]: > 79.4 µM (not active)

— ChEMBL document CHEMBL1201862, “PubChem BioAssay data set” (2004)
